Measured values reported in patent US20110230504A1, “ALLEVIATING DISORDERS WITH COMBINING AGENTS THAT INCREASE EPOXYGENATED FATTY ACIDS AND AGENTS THAT INCREASE cAMP” (The Regents Of The University Of California Office Of …, priority 2008, published 2011).

How the values were obtained:
[1] = target: peripheral benzodiazepine receptor (PBR, TSPO) (Rattus norvegicus, UniProt P16257); test: Displacement of [3H] PK11195 from TSPO (rat heart mitochondria, CEREP); details: methyl ester forms
sEH = target: T1, sEH (Homo sapiens, UniProt P34913); test: Testing as sEH inhibitors (assay not specified); format: biochemical
T1 sequence (P34913 1-555): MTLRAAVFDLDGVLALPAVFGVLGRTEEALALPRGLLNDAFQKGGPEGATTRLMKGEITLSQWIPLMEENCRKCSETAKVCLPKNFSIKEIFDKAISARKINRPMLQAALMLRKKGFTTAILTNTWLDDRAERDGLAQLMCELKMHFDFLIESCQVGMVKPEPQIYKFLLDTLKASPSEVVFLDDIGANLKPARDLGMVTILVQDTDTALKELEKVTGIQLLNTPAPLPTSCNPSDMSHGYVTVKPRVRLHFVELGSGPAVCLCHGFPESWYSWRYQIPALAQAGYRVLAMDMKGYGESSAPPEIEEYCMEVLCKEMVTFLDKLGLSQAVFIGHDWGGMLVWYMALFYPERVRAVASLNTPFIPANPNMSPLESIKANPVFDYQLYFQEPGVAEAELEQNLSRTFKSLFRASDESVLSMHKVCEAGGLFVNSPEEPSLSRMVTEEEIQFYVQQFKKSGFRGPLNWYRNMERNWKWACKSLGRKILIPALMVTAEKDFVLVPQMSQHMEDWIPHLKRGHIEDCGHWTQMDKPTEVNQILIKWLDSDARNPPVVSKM
From the text: Any of a number of standard assays for determining epoxide hydrolase activity can be used to determine inhibition of sEH. For example, suitable assays are described in Gill, et al., Anal Biochem 131:273-282 (1983); and Borhan, et al., Analytical Biochemistry 231:188-200 (1995)). Suitable in vitro assays are described in Zeldin et al., J. Biol. Chem. 268:6402-6407 (1993). Suitable in vivo assays are described in Zeldin et al., Arch Biochem Biophys 330:87-96 (1996). Assays for epoxide hydrolase using both putative natural substrates and surrogate substrates have been reviewed (see, Hammock, et al. In: Methods in Enzymology, Volume III, Steroids and Isoprenoids, Part B, (Law, J. H. and H. C. Rilling, eds. 1985), Academic Press, Orlando, Fla., pp. 303-311 and Wixtrom et al., In: Biochemical Pharmacology and Toxicology, Vol. 1: Methodological Aspects of Drug Metabolizing Enzymes, (Zakim, D. and D. A. Vessey, eds. 1985), John Wiley & Sons, Inc., New York, pp. 1-93. Several spectral based assays exist based on the reactivity or tendency of the resulting diol product to hydrogen bond (see, e.g., Wixtrom, supra, and Hammock. Anal. Biochem. 174:291-299 (1985) and Dietze, et al. Anal. Biochem. 216:176-187 (1994)).

[2] = Metabolic stability and pharmacokinetics of sEH inhibitors (statements)
[3] = system: circulating testosterone and progesterone; test: Circulating steroid hormone levels by RIA; format: in vivo, rat; details: rats
rats [4] = test: Thermal withdrawal latency, intraplantar LPS inflammatory pain model and non-inflamed controls; format: in vivo, rat; details: for thermal withdrawal latency in the absence of inflammation: control rats, i.pl. saline
rats [5] = test: Intraplantar carrageenan inflammatory pain model, intrathecal sEHI; format: in vivo, rat; details: intrathecal 0.1-3 μg
Method: The study was approved by UC Davis Animal Care and Use Committee. Male Sprague-Dawley rats weighing 250-350 g were obtained from Charles River Inc. Two models of inflammatory pain and one model of diabetic neuropathic pain were used to test the effects of sEHI. The main inflammatory pain model used involved intraplantar LPS (10 μg/animal) administration as described previously (Inceoglu B et al., Life Sci 79:2311-2319 (2006)). Briefly, following baseline thermal withdrawal latency and mechanical withdrawal threshold determination LPS (in saline) was administered into one hind paw and nociceptive thresholds were monitored over time. The other inflammatory pain model involved intraplantar carrageenan (1% in saline, 50 μl) administration and was only used when sEHI was administered into the spinal cord. Intrathecal catheters were implanted according to Yaksh and Rudy (Yaksh T L and Rudy T A, Physiol Behav 17(6):1031-1036 (1976)). Following baseline nociceptive response measurements carrageenan was administered into one hind paw and responses were monitored over time and after intraspinal sEHI administration. […] In experiments in which EETs, sEHI and cAMP analogue was administered intraspinally animals were maintained under deep anesthesia and therefore nociceptive thresholds were not determined.

COX2 mRNA = test: Spinal COX2 mRNA after intraplantar LPS, qRT-PCR; format: in vivo, rat; details: rats
From the text: (§1) A purelink Micro to Midi total RNA purification kit (Invitrogen, CA) was used to extract RNA from whole spinal cord, adrenal gland and testis. For brain, the remaining caudal two thirds were sliced into two hemispheres from the midline and a coronal slice of 2 mm in thickness was taken for analysis. The RNA samples were quantified by spectrophotometry and converted to cDNA using a high capacity cDNA reverse transcription kit from Applied Biosystems (CA, USA). Taq-man probes for COX2 (Rn00568225_ml) StARD1 (Rn00580695_ml), ICER(Rn00569145_ml), Sst (Rn00561967_ml), sEH(Rn00576023_ml) genes were used according to manufacturer's instructions to quantify relative gene expression (Applied Biosystems). Experiments were performed in triplicate with GAPDH (glyceraldehyde 3-phosphate dehydrogenase message) serving as the endogenous control. Mean fold expression values from corresponding untreated animal tissues were used as calibrators.

[6] = Brain, blood and plasma inhibitor levels, LC-ESI-MS/MS; details: AEPU dermal, TPAU systemic administration
[7] = system: plasma oxylipins (EETs, DHETs, PGE2); test: Plasma oxylipin analysis in LPS treated rats; format: in vivo, rat; details: LPS treated rats, two hours
From the text: Plasma was collected by cardiac puncture under deep anesthesia. Rats were anesthetized by isoflurane overdose and decapitated. Whole brains were immediately excised and flash frozen. […] Dorsal roots were excluded.

StARD1 mRNA [8] = test: StARD1 mRNA in LPS inflamed rats, qRT-PCR; format: in vivo, rat
From the text: as §1

StARD1 mRNA [9] = test: StARD1 mRNA 30 min after intraspinal 8-Br cAMP, EETs, AEPU in non-inflamed rats; format: in vivo, rat; details: 8-Br cAMP 100 μg, EETs 5 μg, AEPU 1 μg
Method: To investigate the cooperation between cAMP and EETs in the spinal cord, a membrane permeable cAMP analogue, 8-Br cAMP (100 μg), was administered into the spinal cord by lumbar puncture (between L4-L5) and rapid (30 min.) expression of StARD1 mRNA in the spinal cord and the brain was quantified by qRT-PCR. In these experiments animals were maintained under deep anesthesia.

mouse sEH = target: T2, mouse sEH (Mus musculus, UniProt P34914); test: biochemical
T2 sequence (P34914 1-554): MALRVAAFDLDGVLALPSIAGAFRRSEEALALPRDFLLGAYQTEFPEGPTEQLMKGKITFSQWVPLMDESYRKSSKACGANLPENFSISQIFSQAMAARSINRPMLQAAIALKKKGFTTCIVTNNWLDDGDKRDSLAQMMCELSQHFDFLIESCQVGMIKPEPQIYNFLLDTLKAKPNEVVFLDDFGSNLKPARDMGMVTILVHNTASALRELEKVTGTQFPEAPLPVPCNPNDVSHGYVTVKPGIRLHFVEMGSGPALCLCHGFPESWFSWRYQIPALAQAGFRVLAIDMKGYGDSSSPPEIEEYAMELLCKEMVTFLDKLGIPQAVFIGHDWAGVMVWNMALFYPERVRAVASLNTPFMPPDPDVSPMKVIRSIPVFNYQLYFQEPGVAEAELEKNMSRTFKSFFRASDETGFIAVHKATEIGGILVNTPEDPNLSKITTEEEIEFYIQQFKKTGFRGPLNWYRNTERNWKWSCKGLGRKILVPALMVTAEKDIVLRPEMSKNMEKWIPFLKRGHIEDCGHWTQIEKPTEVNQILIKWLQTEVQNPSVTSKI

rats [10] = test: Open field / motor activity; format: in vivo, rat; details: rolipram 0.1 and TPAU 10 mg/kg
StARD1 mRNA [11] = test: StARD1 expression after rolipram and TPAU, qRT-PCR; format: in vivo, rat; details: rats
From the text: Briefly, RNA from whole spinal cord, brain and adrenal gland samples were extracted using a purelink Micro to Midi total RNA purification kit (Invitrogen, CA). The RNA samples were quantified by spectrophotometry and converted to cDNA using a high capacity cDNA reverse transcription kit from Applied Biosystems (CA, USA). Taq-man probe for StARD1 (Rn00580695_ml) was used according to manufacturer's instructions to quantify relative gene expression (Applied Biosystems CA, USA). Experiments were performed in triplicate with glyceraldehyde 3-phosphate dehydrogenase gene serving as the endogenous control. Mean fold expression values from corresponding vehicle treated animal tissues were used as calibrators.
These findings encouraged us to investigate the expression of StARD1 message as a marker of steroidogenic activity. […] Adrenal StARD1 from the same animals was also monitored as a marker of peripheral steroidogenesis.

With `CCCCC/C=C\C/C=C\CC1OC1C/C=C\CCCC(=O)O` (stereo not drawn) [8,9-EET] as the molecule, how does the “competition with radioligand [3H] PK11195 at TSPO” value [1] read?
The value was “did not compete”.

With `CCCCCCCCCCCCNC(=O)NC12CC3CC(CC(C3)C1)C2` [ADU, N-Adamantyl-N′-dodecyl urea] as the molecule, how does the “activity as inhibitor of sEH” value (sEH) read?
Its value is “particularly high activity”.

What about the metabolic stability [2] of the same molecule?
The metabolic stability was “metabolically stable”.

With `CCOCCOCCOCCCCCNC(=O)NC12CC3CC(CC(C3)C1)C2` [AEPU, Adamantan-1-yl-3-{5-[2-(2-ethoxyethoxy)ethoxy]pentyl}urea] as the molecule, how does the “circulating / plasma progesterone level” value [3] read?
Its value is “decreased”.

And the plasma testosterone level ([3]; with or without LPS)?
Its plasma testosterone level is “did not alter”.

And the “thermal withdrawal latency in the absence of inflammation” value (rats [4])?
The value was “no effect”.

And the “LPS elicited thermal hyperalgesia (thermal withdrawal latency)” value (rats [4]; rats, i.pl. LPS 10 μg)?
Its value is “briefly increased”.

And the “carrageenan induced mechanical allodynia” value (rats [5])?
The value was “dose dependent decrease”.

And the “carrageenan induced thermal hyperalgesia” value (rats [5])?
The value was “dose dependent decrease”.

And the “spinal COX2 message after LPS” value (COX2 mRNA)?
Its value is “significantly suppressed”.

And the “penetration into the brain” value [6]?
Its value is “efficiently penetrated into the brain”.

And the “plasma DHET level” value [7]?
Its value is “decreased”.

What about the “plasma PGE2 level” value [7] of the same molecule?
The value was “decreased”.

And the metabolism [2]?
Its metabolism is “metabolized rapidly”.

What about the “adrenal gland StARD1 mRNA induced by LPS” value (StARD1 mRNA [8]) of the same molecule?
The value was “reduced”.

What about the “brain StARD1 mRNA expression” value (StARD1 mRNA [8]) of the same molecule?
The value was “two-fold increase”.

And the “spinal StARD1 mRNA expression” value (StARD1 mRNA [8])?
Its value is “sustained”.

And the “testis StARD1 mRNA induced by LPS” value (StARD1 mRNA [8])?
The value was “not in testis”.

And the “spinal StARD1 expression” value (StARD1 mRNA [9])?
The value was “without effect”.

Which “thermal withdrawal latency in the absence of inflammation” value (rats [4]) does the source give for `CC(=O)N1CCC(NC(=O)Nc2ccc(OC(F)(F)F)cc2)CC1` [TPAU] here?
The value was “no effect”.

And the “loss of motor activity” value (rats [4]; rats)?
Its value is “No loss of motor activity”.

And the IC50 (mouse sEH)?
Its IC50 is 97 nM.

And the “penetration into the brain” value [6]?
Its value is “efficiently penetrated into the brain”.

What about the “open field activity / motor function” value (rats [10]) of the same molecule?
Its value is “did not affect motor function”.

What about the metabolic stability [2] of the same molecule?
The metabolic stability was “metabolically stable”.

What about the “oral availability and pharmacokinetics” value [2] of the same molecule?
The value was “excellent oral availability and pharmacokinetics”.

And the “decrease in adrenal gland StARD1 expression” value (StARD1 mRNA [11])?
Its value is 30%.
